# Measurements from patent publication US9844536B2, “3-(1H-imidazo[4,5-C]pyridin-2-yl)-1H-pyrazolo[3,4-C]pyridine and therapeutic uses thereof” (Samumed, LLC, priority 2014, dated 2017).
# Tested on: Wnt pathway (Sp5-Luc reporter, SW480 cells)
# Assay: Sp5-Luc reporter gene screening assay for Wnt activity in SW480 colon carcinoma cells
# Type: cell-based
# Conditions: Homo sapiens
# Text: The screening assay for Wnt activity is described as follows. Reporter cell lines can be generated by stably transducing cancer cell lines (e.g., colon cancer) or primary cells (e.g., IEC-6 intestinal cells) with a lentiviral construct that includes a Wnt-responsive promoter driving expression of the firefly luciferase gene.
# SW480 colon carcinoma cells were transduced with a lentiviral vector expressing luciferase with a human Sp5 promoter consisting of a sequence of eight TCF/LEF binding sites. SW480 cells stably expressing the Sp5-Luc reporter gene and a hygromycin resistance gene were selected by treatment with 150 μg/ml of hygromycin for 7 days. These stably transduced SW480 cells were expanded in cell culture and used for all further screening activities. For Sp5-Luc reporter gene assays, the cells were plated at 10,000 cells/well in 96-well plates with growth medium containing 10% fetal calf serum and incubated overnight at 37° C. and 5% CO2. Each compound was dissolved in DMSO as a 10 mM stock in standard j-vials and used to prepare compound source plates in dose-response format with 3-fold serial dilutions and a 10 mM top concentration. Compound transfer from serially diluted source plates to assay plates containing the cells was accomplished using a pintool (Multimek 96, Beckman equipped with V&P Scientific FP1S50H pins) based liquid handling protocol. This protocol used a slotted pin to transfer 50 nl of compound from a source plate well to an assay plate well containing 50 μl of cells in growth medium. […] Control wells received 50 nl of DMSO treatment for normalization and calculating IC50 values. The treated cells were incubated at 37° C. and 5% CO2 for an additional forty-two hours. Following incubation, the growth medium was removed and 50 μl of BrightGlo luminescence reagent (Promega) was added to each well of the 96-well assay plates. The plates were placed on an orbital shaker for 5 min and then luminescence was quantified on the Victor3 (Perkin Elmer) plate reader. Readings were normalized to DMSO only treated cells, and normalized activities were utilized for IC50 calculations using the dose-response log (inhibitor) vs. response-variable slope (four parameters) nonlinear regression feature available in GraphPad Prism 5.0 or 6.0.
row,Structure (SMILES),IC50 [nM]
1,"Fc1cccc(-c2nccc3[nH]c(-c4n[nH]c5cnc(-c6cncc(OCCN7CCCC7)c6)cc45)nc23)c1 [Compound 946, 3-(4-(3-Fluorophenyl)-1H-imidazo[4,5-c]pyridin-2-yl)-5-(5-(2-(pyrrolidin-1-yl)ethoxy)pyridin-3-yl)-1H-pyrazolo[3,4-c]pyridine]",> 10000
2,"CC(C)(C)CC(=O)Nc1cncc(-c2cc3c(-c4nc5c(-c6ccccc6F)nccc5[nH]4)n[nH]c3cn2)c1 [Compound 68, N-(5-(3-(4-(2-Fluorophenyl)-1H-imidazo[4,5-c]pyridin-2-yl)-1H-pyrazolo[3,4-c]pyridin-5-yl)pyridin-3-yl)-3,3-dimethylbutanamide]",920
3,"CC(C)(C)CC(=O)Nc1cncc(-c2cc3c(-c4nc5cnccc5[nH]4)n[nH]c3cn2)c1 [Compound 250, N-(5-(3-(1H-Imidazo[4,5-c]pyridin-2-yl)-1H-pyrazolo[3,4-c]pyridin-5-yl)pyridin-3-yl)-3,3-dimethylbutanamide]",> 10000
4,"CN1CCN(c2nccc3[nH]c(-c4n[nH]c5cnc(-c6cncc(N)c6)cc45)nc23)CC1 [Compound 211, 5-(3-(4-(4-Methylpiperazin-1-yl)-1H-imidazo[4,5-c]pyridin-2-yl)-1H-pyrazolo[3,4-c]pyridin-5-yl)pyridin-3-amine]",118
5,"Fc1cccc(-c2nccc3[nH]c(-c4n[nH]c5cnc(-c6cncc(OC7CCCCC7)c6)cc45)nc23)c1 [Compound 943, 5-(5-(Cyclohexyloxy)pyridin-3-yl)-3-(4-(3-fluorophenyl)-1H-imidazo[4,5-c]pyridin-2-yl)-1H-pyrazolo[3,4-c]pyridine]",255
6,"CC(C)CC(=O)Nc1cncc(-c2cc3c(-c4nc5c(-c6cccs6)nccc5[nH]4)n[nH]c3cn2)c1 [Compound 314, 3-Methyl-N-(5-(3-(4-(thiophen-2-yl)-1H-imidazo[4,5-c]pyridin-2-yl)-1H-pyrazolo[3,4-c]pyridin-5-yl)pyridin-3-yl)butanamide]",359
7,"O=C(CC1CCCCC1)Nc1cncc(-c2cc3c(-c4nc5c(-c6cccc(F)c6)nccc5[nH]4)n[nH]c3cn2)c1 [Compound 951, 2-Cyclohexyl-N-(5-(3-(4-(3-fluorophenyl)-1H-imidazo[4,5-c]pyridin-2-yl)-1H-pyrazolo[3,4-c]pyridin-5-yl)pyridin-3-yl)acetamide]",1040
8,"CC(C)(C)C(=O)Nc1cncc(-c2cc3c(-c4nc5c(N6CCCCC6)nccc5[nH]4)n[nH]c3cn2)c1 [Compound 164, N-(5-(3-(4-(Piperidin-1-yl)-1H-imidazo[4,5-c]pyridin-2-yl)-1H-pyrazolo[3,4-c]pyridin-5-yl)pyridin-3-yl)pivalamide]",140
9,"Fc1cccc(-c2nccc3[nH]c(-c4n[nH]c5cnc(-c6cncc(OC7CCNCC7)c6)cc45)nc23)c1 [Compound 944, 3-(4-(3-Fluorophenyl)-1H-imidazo[4,5-c]pyridin-2-yl)-5-(5-(piperidin-4-yloxy)pyridin-3-yl)-1H-pyrazolo[3,4-c]pyridine]",> 10000
10,"CCCC(=O)Nc1cncc(-c2cc3c(-c4nc5c(-c6ccc(F)cc6)nccc5[nH]4)n[nH]c3cn2)c1 [Compound 43, N-(5-(3-(4-(4-Fluorophenyl)-1H-imidazo[4,5-c]pyridin-2-yl)-1H-pyrazolo[3,4-c]pyridin-5-yl)pyridin-3-yl)butyramide]",130
11,"c1cncc(-c2nccc3[nH]c(-c4n[nH]c5cnc(-c6cncc(CN7CCCCC7)c6)cc45)nc23)c1 [Compound 93, 5-(5-(Piperidin-1-ylmethyl)pyridin-3-yl)-3-(4-(pyridin-3-yl)-1H-imidazo[4,5-c]pyridin-2-yl)-1H-pyrazolo[3,4-c]pyridine]",> 10000
12,"CCCCC(=O)Nc1cncc(-c2cc3c(-c4nc5c(-c6ccccn6)nccc5[nH]4)n[nH]c3cn2)c1 [Compound 148, N-(5-(3-(4-(Pyridin-2-yl)-1H-imidazo[4,5-c]pyridin-2-yl)-1H-pyrazolo[3,4-c]pyridin-5-yl)pyridin-3-yl)pentanamide]",199
13,"CC(C)CC(=O)Nc1cncc(-c2cc3c(-c4nc5c(-c6cc(F)cc(OCCN(C)C)c6)nccc5[nH]4)n[nH]c3cn2)c1 [Compound 1262, N-(5-(3-(4-(3-(2-(Dimethylamino)ethoxy)-5-fluorophenyl)-1H-imidazo[4,5-c]pyridin-2-yl)-1H-pyrazolo[3,4-c]pyridin-5-yl)pyridin-3-yl)-3-methylbutanamide]",2060
14,"Fc1cccc(-c2nccc3[nH]c(-c4n[nH]c5cnc(-c6cncc(OCc7ccccc7)c6)cc45)nc23)c1 [Compound 950, 5-(5-(Benzyloxy)pyridin-3-yl)-3-(4-(3-fluorophenyl)-1H-imidazo[4,5-c]pyridin-2-yl)-1H-pyrazolo[3,4-c]pyridine]",2010

# Now those with a lower IC50, led by results:
row,IC50 [nM],Structure (SMILES)
1,51.3,"c1ccc(CNCc2cncc(-c3cc4c(-c5nc6c(-c7cccnc7)nccc6[nH]5)n[nH]c4cn3)c2)cc1 [Compound 101, N-Benzyl-1-(5-(3-(4-(pyridin-3-yl)-1H-imidazo[4,5-c]pyridin-2-yl)-1H-pyrazolo[3,4-c]pyridin-5-yl)pyridin-3-yl)methanamine]"
2,47.6,"CC(C)CC(=O)Nc1cncc(-c2cc3c(-c4nc5c(-c6ccccc6F)nccc5[nH]4)n[nH]c3cn2)c1 [Compound 54, N-(5-(3-(4-(2-Fluorophenyl)-1H-imidazo[4,5-c]pyridin-2-yl)-1H-pyrazolo[3,4-c]pyridin-5-yl)pyridin-3-yl)-3-methylbutanamide]"
3,41,Cc1cn(-c2nccc3[nH]c(-c4n[nH]c5cnc(-c6cncc(NC(=O)CC(C)C)c6)cc45)nc23)cn1 [Compound 184]
4,38.7,"CC(C)(C)C(=O)Nc1cncc(-c2cc3c(-c4nc5c(-c6ccoc6)nccc5[nH]4)n[nH]c3cn2)c1 [Compound 294, N-(5-(3-(4-(Furan-3-yl)-1H-imidazo[4,5-c]pyridin-2-yl)-1H-pyrazolo[3,4-c]pyridin-5-yl)pyridin-3-yl)pivalamide]"
5,37.8,"O=C(Nc1cncc(-c2cc3c(-c4nc5c(-c6cccs6)nccc5[nH]4)n[nH]c3cn2)c1)C1CCC1 [Compound 332, N-(5-(3-(4-(Thiophen-2-yl)-1H-imidazo[4,5-c]pyridin-2-yl)-1H-pyrazolo[3,4-c]pyridin-5-yl)pyridin-3-yl)cyclobutanecarboxamide]"
6,34.1,"CCC(=O)Nc1cncc(-c2cc3c(-c4nc5c(-c6cccc(F)c6)nccc5[nH]4)n[nH]c3cn2)c1 [Compound 1, N-(5-(3-(4-(3-Fluorophenyl)-1H-imidazo[4,5-c]pyridin-2-yl)-1H-pyrazolo[3,4-c]pyridin-5-yl)pyridin-3-yl)propionamide]"
7,33.4,"CCCC(=O)Nc1cncc(-c2cc3c(-c4nc5c(-c6ccccc6F)nccc5[nH]4)n[nH]c3cn2)c1 [Compound 69, N-(5-(3-(4-(2-Fluorophenyl)-1H-imidazo[4,5-c]pyridin-2-yl)-1H-pyrazolo[3,4-c]pyridin-5-yl)pyridin-3-yl)butyramide]"
8,32,"Fc1cccc(-c2nccc3[nH]c(-c4n[nH]c5cnc(-c6ccncc6)cc45)nc23)c1 [Compound 952, 3-(4-(3-Fluorophenyl)-1H-imidazo[4,5-c]pyridin-2-yl)-5-(pyridin-4-yl)-1H-pyrazolo[3,4-c]pyridine]"
9,28.6,"CCC(=O)Nc1cncc(-c2cc3c(-c4nc5c(-c6cccs6)nccc5[nH]4)n[nH]c3cn2)c1 [Compound 313, N-(5-(3-(4-(Thiophen-2-yl)-1H-imidazo[4,5-c]pyridin-2-yl)-1H-pyrazolo[3,4-c]pyridin-5-yl)pyridin-3-yl)propionamide]"
